PubChem BioAssay (NCI)
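Values below derive from 48-hour exposures of cells grown in 96-well plates, with endpoints linearly interpolated between the two concentrations bracketing the appropriate inhibition level. At the GI50, growth is halved. The concentration for full growth arrest is given as TGI.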

Experiments:
Test in all cases: growth of human tumour cells (NCI), 48 h
[1] = test system: SF-539 CNS
[2] = test system: CAKI-1 renal
[3] = test system: UACC-257 melanoma
[4] = test system: MDA-MB-231 breast
[5] = test system: PC-3 prostate
[6] = test system: CCRF-CEM leukemia
[7] = test system: DU-145 prostate
[8] = test system: HOP-92 NSCLC
[9] = test system: SF-295 CNS
[10] = test system: OVCAR-4 ovarian
[11] = test system: K-562 leukemia
[12] = test system: MDA-MB-435
[13] = test system: HS 578T breast
[14] = test system: SK-MEL-28 melanoma
[15] = test system: UACC-62 melanoma
[16] = test system: OVCAR-8 ovarian
[17] = test system: T-47D breast
[18] = test system: HL-60(TB) leukemia
[19] = test system: UO-31 renal
[20] = test system: M14 melanoma
[21] = test system: SF-268 CNS
[22] = test system: KM12 colon
[23] = test system: ACHN renal
[24] = test system: NCI/ADR-RES ovarian
[25] = test system: U251 CNS
[26] = test system: SNB-75 CNS
[27] = test system: SR leukemia
[28] = test system: HCC-2998 colon
[29] = test system: TK-10 renal
[30] = test system: 786-0 renal
[31] = test system: HOP-62 NSCLC
[32] = test system: SW-620 colon
[33] = test system: LOX IMVI melanoma
[34] = test system: EKVX NSCLC
[35] = test system: HCT-15 colon
[36] = test system: HT29 colon
[37] = test system: IGROV1 ovarian
[38] = test system: SK-MEL-5 melanoma
[39] = test system: COLO 205 colon
[40] = test system: SNB-19 CNS
[41] = test system: HCT-116 colon
[42] = test system: MCF7 breast
[43] = test system: NCI-H226 lung
[44] = test system: NCI-H23 lung
[45] = test system: BT-549 breast
[46] = test system: RXF 393 renal
[47] = test system: MOLT-4 leukemia
[48] = test system: A498 renal
[49] = test system: SK-MEL-2 melanoma
[50] = test system: NCI-H460 lung
[51] = test system: SK-OV-3 ovarian
[52] = test system: A549 NSCLC
[53] = test system: MALME-3M melanoma
[54] = test system: OVCAR-5 ovarian
[55] = test system: OVCAR-3 ovarian
[56] = test system: SN12C renal
[57] = test system: NCI-H522 lung
[58] = test system: RPMI-8226 leukemia

Compound O=c1[nH]c2cc(F)c(F)cc2nc1Cc1ccccc1 has a TGI [1] of over 100000 nM, a TGI [2] of over 100000 nM and a TGI [3] of over 100000 nM. It also gave a TGI [4] of over 100000 nM, a TGI [5] of over 100000 nM and a TGI [6] of over 100000 nM. The TGI [7] was over 100000 nM, the TGI [8] was over 100000 nM and the TGI [9] was over 100000 nM. The TGI [10] was over 100000 nM, the TGI [11] was over 100000 nM and the TGI [12] was over 100000 nM. The TGI [13] was over 100000 nM, the TGI [14] was over 100000 nM and the TGI [15] was over 100000 nM. For the same compound, the TGI [16] was over 100000 nM, the TGI [17] was over 100000 nM and the TGI [18] was over 100000 nM. It also gave a TGI [19] of over 100000 nM, a TGI [20] of over 100000 nM and a TGI [21] of over 100000 nM. The TGI [22] was over 100000 nM, the TGI [23] was over 100000 nM and the TGI [24] was over 100000 nM. The TGI [25] was over 100000 nM, the TGI [26] was over 100000 nM and the TGI [27] was over 100000 nM. The TGI [28] was over 100000 nM, the TGI [29] was over 100000 nM and the TGI [30] was over 100000 nM. For the same compound, the TGI [31] was over 100000 nM, the TGI [32] was over 100000 nM and the TGI [33] was over 100000 nM. For the same compound, the TGI [34] was over 100000 nM, the TGI [35] was over 100000 nM and the TGI [36] was over 100000 nM. The TGI [37] was over 100000 nM, the TGI [38] was over 100000 nM and the TGI [39] was over 100000 nM. The TGI [40] was over 100000 nM, the TGI [41] was over 100000 nM and the TGI [42] was over 100000 nM. For the same compound, the TGI [43] was over 100000 nM, the TGI [44] was over 100000 nM and the TGI [45] was over 100000 nM. The TGI [46] was over 100000 nM, the TGI [47] was over 100000 nM and the TGI [48] was over 100000 nM. The TGI [49] was over 100000 nM, the TGI [50] was over 100000 nM and the TGI [51] was over 100000 nM.
Work on C=C1C(=O)O[C@H]2[C@H]1CC/C(COC(=O)CCSSCCC(=O)OC/C1=C/CC[C@@]3(C)O[C@H]3[C@H]3OC(=O)C(=C)[C@@H]3CC1)=C\CC[C@@]1(C)O[C@@H]21 yielded a GI50 [1] of 1500 nM, a TGI [1] of 2910 nM and a GI50 [2] of 1280 nM. The TGI [2] was 2540 nM, the GI50 [52] was 1990 nM and the TGI [52] was 4270 nM. The GI50 [3] was 1600 nM, the TGI [3] was 3430 nM and the GI50 [4] was 1230 nM. For the same compound, the TGI [4] was 2660 nM, the GI50 [5] was 1330 nM and the TGI [5] was 2900 nM. It also gave a GI50 [6] of 225 nM, a TGI [6] of 1190 nM and a GI50 [7] of 1300 nM. For the same compound, the TGI [7] was 2570 nM, the GI50 [8] was 1020 nM and the TGI [8] was 2540 nM. For the same compound, the GI50 [9] was 3500 nM, the TGI [9] was 13900 nM and the GI50 [10] was 1520 nM. It also gave a TGI [10] of 3120 nM, a GI50 [11] of 465 nM and a TGI [11] of 2850 nM. For the same compound, the GI50 [12] was 1400 nM, the TGI [12] was 3070 nM and the GI50 [13] was 1950 nM. For the same compound, the TGI [13] was 7450 nM, the GI50 [14] was 1490 nM and the TGI [14] was 2950 nM. It also gave a GI50 [15] of 1560 nM, a TGI [15] of 3160 nM and a GI50 [16] of 1260 nM. The TGI [16] was 3020 nM, the GI50 [17] was 1200 nM and the TGI [17] was 4010 nM. The GI50 [18] was 448 nM, the TGI [18] was 2190 nM and the GI50 [19] was 1080 nM. The TGI [19] was 2280 nM, the GI50 [20] was 1340 nM and the TGI [20] was 2880 nM. For the same compound, the GI50 [53] was 1080 nM, the TGI [53] was 2540 nM and the GI50 [21] was 1460 nM. The TGI [21] was 3080 nM, the GI50 [22] was 1830 nM and the TGI [22] was 3690 nM. For the same compound, the GI50 [23] was 897 nM, the TGI [23] was 2110 nM and the GI50 [24] was 2860 nM. It also gave a TGI [24] of 10200 nM, a GI50 [25] of 1410 nM and a TGI [25] of 2860 nM. For the same compound, the GI50 [26] was 1800 nM, the TGI [26] was 3480 nM and the GI50 [27] was 308 nM. It also gave a TGI [27] of 2770 nM, a GI50 [28] of 1980 nM and a TGI [28] of 3930 nM. The GI50 [29] was 1620 nM, the TGI [29] was 3190 nM and the GI50 [30] was 1280 nM. The TGI [30] was 2600 nM, the GI50 [31] was 1980 nM and the TGI [31] was 4640 nM. It also gave a GI50 [32] of 458 nM, a TGI [32] of 1900 nM and a GI50 [33] of 1600 nM. For the same compound, the TGI [33] was 3120 nM, the GI50 [34] was 1610 nM and the TGI [34] was 3470 nM. It also gave a GI50 [35] of 429 nM, a TGI [35] of 1760 nM and a GI50 [36] of 819 nM. For the same compound, the TGI [36] was 2390 nM, the GI50 [37] was 1190 nM and the TGI [37] was 2660 nM. The GI50 [54] was 1590 nM, the TGI [54] was 3160 nM and the GI50 [38] was 1440 nM. For the same compound, the TGI [38] was 2780 nM, the GI50 [39] was 1160 nM and the TGI [39] was 2990 nM. For the same compound, the GI50 [40] was 1490 nM, the TGI [40] was 3160 nM and the GI50 [41] was 330 nM. It also gave a TGI [41] of 1240 nM, a GI50 [42] of 426 nM and a TGI [42] of 2320 nM. It also gave a GI50 [43] of 1600 nM, a TGI [43] of 3340 nM and a GI50 [44] of 1730 nM. The TGI [44] was 3720 nM, the GI50 [45] was 1100 nM and the TGI [45] was 2330 nM. The GI50 [46] was 247 nM, the TGI [46] was 980 nM and the GI50 [47] was 437 nM. It also gave a TGI [47] of 2610 nM, a GI50 [49] of 1930 nM and a TGI [49] of 4160 nM. It also gave a GI50 [50] of 1590 nM, a TGI [50] of 3340 nM and a GI50 [55] of 650 nM. For the same compound, the TGI [55] was 1950 nM, the GI50 [51] was 6670 nM and the TGI [51] was 19000 nM. It also gave a GI50 [56] of 1140 nM, a TGI [56] of 2580 nM and a GI50 [57] of 688 nM. It also gave a TGI [57] of 2270 nM, a GI50 [58] of 1060 nM and a TGI [58] of 3900 nM.
